{
  "source": "patent US20190388495A1",
  "about": "“Pharmaceutical Composition for Preventing or Treating Hypersensitivity Immune Disease, and Method for Producing Same” (QURATIS INC., priority 2017, published 2019)",
  "data": [
    {"tested_on": "plasmacytoid dendritic cells", "assay": "IL-10 secretion from plasmacytoid dendritic cells induced with various toll-like receptor agonists, ELISA (Example 3)", "assay_type": "cell-based, C57BL/6 mice", "conditions": "stimulated with ODN1826 1 μg/ml, 24 hours; vs non-treatment", "excerpt": "In order to check the immune tolerance inducing effect of various toll-like receptor agonists, differentiation into the plasmacytoid dendritic cells was induced by the same method as in Example 1. Ligands listed in Table 2 were used as the toll-like receptor agonist. From the cells obtained after 8 days of culture, the plasmacytoid dendritic cells were separated at a purity equal to or greater than 85% by a plasmacytoid dendritic cell separation kit (Miltenyi Biotec, Auburn, Calif.) and a magnetic cell sorting system (Vario MACS: Miltenyi Biotec, Auburn, Calif.). The separated cells (5×10^5 cells/ml) were inoculated into a 48 well plate. ODN1826 (1 μg/ml) was applied thereto and the cells were cultured for 24 hours. Then, supernatant was separated. The secretion pattern of the immunosuppressive cytokine IL-10 was then checked by ELISA (enzyme linked immunosorbent assay).", "values": [
      {"compound": "LPS [TLR4 agonist]", "expression level of IL-10 from plasmacytoid dendritic cells differentiated via treatment with the agonist": "significantly increased"},
      {"compound": "CC(C)Cn1cnc2c(N)nc3ccccc3c21", "note": "[TLR7 agonist, Imiquimod]", "expression level of IL-10 from plasmacytoid dendritic cells differentiated via treatment with the agonist": "significantly increased"},
      {"compound": "Pam3 [TLR2 agonist]", "expression level of IL-10 from plasmacytoid dendritic cells differentiated via treatment with the agonist": "significantly increased"}
    ]}
  ]
}
